Key:
[1] = Pharmacokinetic assay in mice, plasma LC-MS/MS, two-compartment model; type: in vivo, mouse
KPC tumors = assay: In vivo tumor growth study, KPC tumors in athymic nude mice; set-up: species or system mouse; settings: 20 mg/kg IV, mice with KPC tumors

COc1cccc2c1C(=O)c1c(O)c3c(c(O)c1C2=O)C[C@@](O)(C(=O)CO)C[C@@H]3O[C@H]1C[C@H](N)[C@H](O)[C@H](C)O1 [doxorubicin, Doxorubicin]
AUC ([1]; male, ICR, mouse, plasma, iv, 6 mg/kg): 260 ng·h/mL | T1/2β (terminal half-life) ([1]; mouse plasma, single IV dose 6.0 mg/kg doxorubicin-equivalent): 3.2 h | time to toxicity-related fatality (KPC tumors): ≤ 1 week | toxicity-related fatality (KPC tumors): toxicity-related fatality in all mice

Reference: paper PMC10785662 (ACS Omega, 2023)
